Experimental data published in patent US20060154903A1, “Betulinol derivatives as anti-cancer agents” (priority 2004, published 2006).
Where two headings read alike, the source gives them in different places.

How the values were obtained:
[1] = system: human prostate cancer LNCaP cell line; assay: MTT cytotoxicity assay, LNCaP; type: cell-based; conditions: LNCaP; for inhibition at 100 µM / inhibition at 10 µM / inhibition at 1 µM: Homo sapiens, read-out: Growth Inhibition %; for inhibition at 100 µM: 1 × 10^−4 M; for inhibition at 10 µM: 1 × 10^−5 M; for inhibition at 1 µM: 1 × 10^−6 M
Method: The human prostate cancer LNCaP, PC-3, and DU-145 cell lines, as well as human fibroblast cell line, were obtained from the American Type Culture Collection (“ATCC”) and maintained in RPMI-1640, F-12k, and MEM mediums, respectively, supplemented with 10% FBS. Cell lines were maintained at 37° C. under a humidified atmosphere and 5% CO2 for testing of the cytotoxicity of betulinol derivatives. The cytotoxicity assay was performed using MTT assay according to the instructions of ATCC protocol. Cells 1×10^5 in 0.1 ml/well were plated in 96-well culture plates (Costar) and incubated with a different dilution of betulinol derivatives for 24, 48, and 72 hours. Ten μl of 3-[4,5-dimethylthiazol-2-yl]-2,5 diphenyl tetrazolium bromide was added into each well at the end of each incubation period. The reaction product, formazan, was dissolved in the detergent, and the absorbance was read at 540 nm (Ref).
(§1) However, these compounds were not tested on prostate cancer LNCaP cell line by NCI. […] The anti-tumor activity of the compounds was determined at three doses and the total growth inhibition kill effect as pertinent of the control at 24, 48, and 72 hours as presented in Table 11.

[2] = system: carcinoma cell line CO-115 of the large intestine; conditions: cytotoxic activity; cited from earlier work
MCF7 = assay: In vitro cytotoxicity, Breast (2), MCF7; type: cell-based, human
SF-268 = assay: In vitro cytotoxicity, CNS (2), SF-268; type: cell-based, human
NCI-H460 = assay: In vitro cytotoxicity, Lung (2), NCI-H460; type: cell-based, human
[3] = system: different human tumor cell lines; assay: In vitro cell toxicity test by NCI, tumor cell line panel; type: cell-based; conditions: tested by NCI; comparison among compounds 2, 3, 4 and 5
Bladder cancer cells = conditions: 1 × 10^−4 M; Bladder (1), cell line not given
PC-3 = assay: In vitro cytotoxicity, Prostate (2), PC-3; type: cell-based, human
DU-145 = assay: In vitro cytotoxicity, Prostate (2), DU-145; type: cell-based, human
CAKI-1 = assay: In vitro cytotoxicity, Renal (2), CAKI-1; type: cell-based, human
Method: as §1

RXF 393 = assay: In vitro cytotoxicity, Renal (2), RXF 393; type: cell-based, human
TK-10 = assay: In vitro cytotoxicity, Renal (2), TK-10; type: cell-based, human
Method: as §1

T-47d = assay: In vitro cytotoxicity, Breast (2), T-47d; type: cell-based, human
OVCAR-5 = assay: In vitro cytotoxicity, Ovarian (2), OVCAR-5; type: cell-based, human
Method: as §1

OVACR-3 = assay: In vitro cytotoxicity, Ovarian (2), OVACR-3; type: cell-based, human
Method: as §1

U251 = assay: In vitro cytotoxicity, CNS (2), U251; type: cell-based, human
MALME-3M = assay: In vitro cytotoxicity, Melanoma (2), MALME-3M; type: cell-based, human
HOP-92 = assay: In vitro cytotoxicity, Lung (2), HOP-92; type: cell-based, human
Method: as §1

NCI-H322M = assay: In vitro cytotoxicity, Lung (2), NCI-H322M; type: cell-based, human
Method: as §1

184B5/HER = assay: In vitro cytotoxicity, Breast (1), 184B5/HER; type: cell-based; conditions: 1 × 10^−4 M
[4] = Tolerability of solubilized drug in mice with prostate cancer cell xenografts; type: in vivo; conditions: final concentration of 22% ethanol and 2×10^−3 mol per liter of betulonic acid
Method: In the present experiment, twelve male athymic mice were utilized. Seven to ten million cells, from a prostate cancer LNCaP cell line culture, were suspended homogenously in a Matrigel basement membrane matrix and transplanted in mice as xenografts. Tumors were visible within a week. […] Control groups of mice were also injected daily with a solution containing 22% ethanol in phosphate buffer solution (PBS) containing 4% albumin for a duration of 24 days. […] The volume of the tumors was determined daily using a caliper in order to observe any change in the tumor volume (FIG. 12), calculated according to the formula π/6(1×w×h). Mice were sacrificed by CO2 asphyxiation on day 24 after the first injection (FIGS. 13A-D). Total percent increase in tumor volume in drug treated and control groups was assessed (FIG. 14).

[5] = Solubility in DMSO diluted with culture medium (GC)
Method: The residue was dissolved in chloroform analyzed on GC.
Ethyl ether was then evaporated. […] Concentration of drug in the above solutions was analyzed by GC and determined from the standard solubility curve.

C=C(C)[C@@H]1CC[C@]2(C(=O)O)CC[C@]3(C)[C@H](CC[C@@H]4[C@@]5(C)CC[C@H](O)C(C)(C)[C@@H]5CC[C@]43C)[C@@H]12 [Compound 2, Betulinic Acid]
Growth Inhibition % ([1]; 24 hours, 2.5 × 10^−5 (M)): 41.0% | Growth Inhibition % ([1]; 24 hours, 2.5 × 10^−6 (M)): 24.6% | Growth Inhibition % ([1]; 24 hours, 2.5 × 10^−7 (M)): 11.72% | Growth Inhibition % ([1]; 48 hours, 2.5 × 10^−5 (M)): 73.3% | Growth Inhibition % ([1]; 48 hours, 2.5 × 10^−6 (M)): 69.4% | Growth Inhibition % ([1]; 48 hours, 2.5 × 10^−7 (M)): 62.8% | LD 50 [2]: 0.375 mg/mL

C=C(C)[C@@H]1CC[C@]2(C=O)CC[C@]3(C)[C@H](CC[C@@H]4[C@@]5(C)CC[C@H](O)C(C)(C)[C@@H]5CC[C@]43C)[C@@H]12 [Compound 3, Betulin Aldehyde]
Growth Inhibition % ([1]; 24 hours, 2.5 × 10^−5 (M)): 29.5% | Growth Inhibition % ([1]; 24 hours, 2.5 × 10^−6 (M)): 11.0% | Growth Inhibition % ([1]; 24 hours, 2.5 × 10^−7 (M)): 6.34% | Growth Inhibition % ([1]; 48 hours, 2.5 × 10^−5 (M)): 72.3% | Growth Inhibition % ([1]; 48 hours, 2.5 × 10^−6 (M)): 40.9% | Growth Inhibition % ([1]; 48 hours, 2.5 × 10^−7 (M)): 27.6%

C=C(C)C1CCC2(C=O)CCC3(C)C(CCC4C5(C)CCC(=O)C(C)(C)C5CCC43C)C12 (stereo not shown) [Compound 5, Betulon Aldehyde]
Percent Killed (MCF7; 1 × 10^−4 M): 68% | Percent Killed (SF-268; 1 × 10^−4 M): 27% | Percent Killed (NCI-H460; 1 × 10^−4 M): 89% | cell growth inhibitory properties against different human tumor cell lines [3]: most effective inhibition of cell growth without selective activity | Percent Killed (Bladder cancer cells): 29%

C=C(C)[C@@H]1CC[C@]2(COC(C)=O)CC[C@]3(C)[C@H](CC[C@@H]4[C@@]5(C)CC[C@H](OC(C)=O)C(C)(C)[C@@H]5CC[C@]43C)[C@@H]12 [Compound 6, Betulin Diacetate]
Percent Killed (PC-3; 1 × 10^−4 M): 25% | Percent Killed (PC-3; 1 × 10^−5 M): 15% | Percent Killed (DU-145; 1 × 10^−4 M): 100% | Percent Killed (DU-145; 1 × 10^−5 M): 100% | Percent Killed (DU-145; 1 × 10^−6 M): 100% | Percent Killed (DU-145; 1 × 10^−7 M): 100% | Percent Killed (DU-145; 1 × 10^−8 M): 27% | Percent Killed (CAKI-1; 1 × 10^−4 M): 100% | Percent Killed (CAKI-1; 1 × 10^−5 M): 100% | Percent Killed (CAKI-1; 1 × 10^−6 M): 100% | Percent Killed (RXF 393; 1 × 10^−4 M): 100% | Percent Killed (RXF 393; 1 × 10^−5 M): 100% | Percent Killed (RXF 393; 1 × 10^−6 M): 100% | Percent Killed (RXF 393; 1 × 10^−7 M): 97% | Percent Killed (RXF 393; 1 × 10^−8 M): 15% | Percent Killed (TK-10; 1 × 10^−4 M): 100% | Percent Killed (TK-10; 1 × 10^−5 M): 100% | Percent Killed (TK-10; 1 × 10^−6 M): 49% | Percent Killed (MCF7; 1 × 10^−4 M): 100% | Percent Killed (MCF7; 1 × 10^−5 M): 100% | Percent Killed (MCF7; 1 × 10^−6 M): 100% | Percent Killed (MCF7; 1 × 10^−7 M): 100% | Percent Killed (T-47d; 1 × 10^−4 M): 100% | Percent Killed (T-47d; 1 × 10^−5 M): 100% | Percent Killed (T-47d; 1 × 10^−6 M): 100% | Percent Killed (T-47d; 1 × 10^−7 M): 23% | Percent Killed (OVCAR-5; 1 × 10^−4 M): 100% | Percent Killed (OVCAR-5; 1 × 10^−5 M): 100% | Percent Killed (OVCAR-5; 1 × 10^−6 M): 100% | Percent Killed (OVACR-3; 1 × 10^−4 M): 100% | Percent Killed (OVACR-3; 1 × 10^−5 M): 100% | Percent Killed (OVACR-3; 1 × 10^−6 M): 96% | Percent Killed (U251; 1 × 10^−4 M): 100% | Percent Killed (U251; 1 × 10^−5 M): 100% | Percent Killed (U251; 1 × 10^−6 M): 100% | Percent Killed (U251; 1 × 10^−7 M): 100% | Percent Killed (SF-268; 1 × 10^−4 M): 100% | Percent Killed (SF-268; 1 × 10^−5 M): 100% | Percent Killed (SF-268; 1 × 10^−6 M): 100% | Percent Killed (SF-268; 1 × 10^−7 M): 75% | Percent Killed (SF-268; 1 × 10^−8 M): 15% | Percent Killed (MALME-3M; 1 × 10^−4 M): 100% | Percent Killed (MALME-3M; 1 × 10^−5 M): 100% | Percent Killed (MALME-3M; 1 × 10^−6 M): 100% | Percent Killed (MALME-3M; 1 × 10^−7 M): 100% | Percent Killed (MALME-3M; 1 × 10^−8 M): 98% | Percent Killed (HOP-92; 1 × 10^−4 M): 100% | Percent Killed (HOP-92; 1 × 10^−5 M): 100% | Percent Killed (HOP-92; 1 × 10^−6 M): 100% | Percent Killed (NCI-H460; 1 × 10^−4 M): 100% | Percent Killed (NCI-H460; 1 × 10^−5 M): 100% | Percent Killed (NCI-H460; 1 × 10^−6 M): 100% | Percent Killed (NCI-H460; 1 × 10^−7 M): 25% | Percent Killed (NCI-H322M; 1 × 10^−4 M): 100% | Percent Killed (NCI-H322M; 1 × 10^−5 M): 100% | Percent Killed (NCI-H322M; 1 × 10^−6 M): 100%

C=C(C)C1CCC2(COC)CCC3(C)C(CCC4C5(C)CCC(OC)C(C)(C)C5CCC43C)C12 (stereo not shown) [Compound 7, Betulin Dimethyl ether (Cornelon)]
Percent Killed (MCF7; 1 × 10^−4 M): 97% | Percent Killed (184B5/HER): Toxic | Percent Killed (SF-268; 1 × 10^−4 M): 100% | Percent Killed (NCI-H460; 1 × 10^−4 M): 80% | Percent Killed (Bladder cancer cells): 30%

C=C(C)[C@@H]1CC[C@]2(CO)CC[C@]3(C)[C@H](CC[C@@H]4[C@@]5(C)CC[C@H](OC(C)=O)C(C)(C)[C@@H]5CC[C@]43C)[C@@H]12 [Compound 8, 3-Acetoxy Betulin]
Growth Inhibition % ([1]; 24 hours, 2.5 × 10^−5 (M)): 12.4% | Growth Inhibition % ([1]; 24 hours, 2.5 × 10^−6 (M)): 10.4% | Growth Inhibition % ([1]; 24 hours, 2.5 × 10^−7 (M)): 0% | Growth Inhibition % ([1]; 48 hours, 2.5 × 10^−5 (M)): 28.3% | Growth Inhibition % ([1]; 48 hours, 2.5 × 10^−6 (M)): 44.7% | Growth Inhibition % ([1]; 48 hours, 2.5 × 10^−7 (M)): 17.4%

C=C(C)C1CCC2(C(=O)NCCCCC(NC(=O)OC(C)(C)C)C(=O)O)CC[C@]3(C)[C@H](CC[C@@H]4[C@@]5(C)CCC(=O)C(C)(C)[C@@H]5CC[C@]43C)C12 (stereo partly shown) [Monomer-Boc]
tolerability in mice [4]: well tolerated | Concentration of drug (mg/mL) [5]: 0.7 mg/mL | Concentration of drug (mol/L) [5]: 0.001 mol/L

C=C(C)C1CCC2(C(=O)NCCCCC(NC(=O)OC(C)(C)C)C(=O)OC)CC[C@]3(C)[C@H](CC[C@@H]4[C@@]5(C)CCC(=O)C(C)(C)[C@@H]5CC[C@]43C)C12 (stereo partly shown) [Monomer]
inhibition at 100 µM ([1]; 24 h, 24 hours): 76.5 ± 22.6% | inhibition at 10 µM ([1]; 24 h, 24 hours): 19 ± 14.4% | inhibition at 1 µM ([1]; 24 h, 24 hours): 5.5 ± 7.32% | inhibition at 100 µM ([1]; 48 h, 48 hours): ~80% | inhibition at 10 µM ([1]; 48 h, 48 hours): 36.8% | inhibition at 1 µM ([1]; 48 h, 48 hours): 15 ± 11.2% | inhibition at 100 µM ([1]; 72 h, 72 hours): 79.2 ± 16.5% | inhibition at 10 µM ([1]; 72 h, 72 hours): 40.5 ± 33.6% | inhibition at 1 µM ([1]; 72 h, 72 hours): 17.2 ± 32.5%
